Reference: patent publication US4530903A, “L-2-hydroxy-4-methylpentanoic acid-dehydrogenase, process for obtaining it and its use” (Degussa Aktiengelleschaft, priority 1982, dated 1985)

Assays:
[1] = target: T1, L-2-hydroxy-4-methylpentanoic acid-dehydrogenase (Weissella confusa, UniProt P14295); experiment: Dehydrogenation of 2-hydroxycarboxylic acids to 2-ketocarboxylic acids (Example 1), NADH formation at 340 nm; type: biochemical, Lactobacillus confusus; conditions: same enzyme solution
T1 construct: the cells harvesting by centrifugation, solubilizing the product in a suspension buffered to pH 7 and obtaining the enzyme from the extract; made in house; host or cells: Lactobacillus confusus DSM 20196 (natural producer, not recombinant)
T1 sequence (P14295 1-310): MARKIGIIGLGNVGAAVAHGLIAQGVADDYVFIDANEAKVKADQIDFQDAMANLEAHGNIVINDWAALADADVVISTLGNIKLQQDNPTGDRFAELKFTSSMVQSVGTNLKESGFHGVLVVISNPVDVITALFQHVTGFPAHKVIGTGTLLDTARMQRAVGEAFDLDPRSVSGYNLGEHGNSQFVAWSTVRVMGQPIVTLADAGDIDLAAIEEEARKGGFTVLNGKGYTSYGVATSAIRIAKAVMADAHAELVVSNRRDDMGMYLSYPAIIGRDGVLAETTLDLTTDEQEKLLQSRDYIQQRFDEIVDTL
Protocol: (§1) In each case, there was measured the maximal initial reaction velocity Vmax and the KM value. […] In a corresponding manner, the enzymatic activity against other 2-hydroxycarboxylic acids was determined. The concentration of the corresponding 2-hydroxycarboxylic acids in the test was varied between 0.2 and a maximum of 100 millimoles. By increasing the substrate concentration, the maximum beginning reaction velocity Vmax was ascertained. The Michaelis constant (KM value) corresponds to the substrate concentration in moles/liter, at which the reaction velocity V amounts to half the maximum initial reaction velocity. The kinetic constants Vmax and KM were ascertained through non-linear regression of the Michaelis-[…] and are collected in Table 2. […] The relative activities (U/ml) set forth in Table 3 were measured at substrate-final concentrations of 1 millimole, 10 millimoles, and 100 millimoles. In all cases, there was employed the same enzyme solution.

[2] = target: T1, L-2-hydroxy-4-methylpentanoic acid-dehydrogenase; experiment: Reduction of 2-ketocarboxylic acids to L-2-hydroxycarboxylic acids (Example 2), NADH decrease at 340 nm; type: biochemical, Lactobacillus confusus; conditions: same enzyme solution
Protocol: (§2) In each case, there was again measured the maximal beginning reaction velocity Vmax and the KM value. […] In a corresponding manner there was determined the enzyme activity against other 2-ketocarboxylic acids. The keto acid concentration in each case was varied in the range of 0.01 to a maximum of 10 millimoles. The maximal initial reaction velocity was ascertained through the increase of the substrate concentration. The Michaelis constant (KM value) corresponds to the substrate concentration in moles/liter at which the reaction velocity V is half the maximum initial reaction velocity. The kinetic constants Vmax and KM were ascertained through nonlinear regression of the Michaelis-[…] equation and are summarized in following Table 4. The relative activities (U/ml) stated in Table 5 were measured at substrate final concentrations of 0.1 millimoles, 1 millimole, and 10 millimoles. In all cases, there was employed the same enzyme solution. At 10 millimoles in all substrates there was already noticeable a substrate excess inhibition.

[3] = substrate: CCCCC(=O)C(=O)O; experiment: purified protein, by the assay type; type: biochemical, Lactobacillus confusus; conditions: other: reduction, pH 7.0, 0.235 millimoles NADH
Protocol: as §2

[4] = substrate: CSCCC(=O)C(=O)O; experiment: purified protein, by the assay type; type: biochemical, Lactobacillus confusus; conditions: other: reduction, pH 7.0, 0.235 millimoles NADH
Protocol: as §2

[5] = substrate: CCCC(=O)C(=O)O; experiment: purified protein, by the assay type; type: biochemical, Lactobacillus confusus; conditions: other: reduction, pH 7.0, 0.235 millimoles NADH
Protocol: as §2

[6] = substrate: CC(C)CC(=O)C(=O)O; experiment: purified protein, by the assay type; type: biochemical, Lactobacillus confusus; conditions: other: reduction, pH 7.0, 0.235 millimoles NADH
Protocol: as §2

[7] = substrate: CC(C)C[C@H](O)C(=O)O; experiment: purified protein, by the assay type; type: biochemical, Lactobacillus confusus; conditions: other: dehydrogenation, pH 8.0, 3 mmoles NAD+, with the enantiomer mixture based on the total concentration
Protocol: as §1

[8] = substrate: CCCCC(O)C(=O)O; experiment: purified protein, by the assay type; type: biochemical, Lactobacillus confusus; conditions: other: dehydrogenation, pH 8.0, 3 mmoles NAD+, with the enantiomer mixture based on the total concentration
Protocol: as §1

[9] = substrate: CC(C)CC(O)C(=O)O; experiment: purified protein, by the assay type; type: biochemical, Lactobacillus confusus; conditions: other: dehydrogenation, pH 8.0, 3 mmoles NAD+, with the enantiomer mixture based on the total concentration
Protocol: as §1

[10] = substrate: CCCC(O)C(=O)O; experiment: purified protein, by the assay type; type: biochemical, Lactobacillus confusus; conditions: other: dehydrogenation, pH 8.0, 3 mmoles NAD+, with the enantiomer mixture based on the total concentration
Protocol: as §1

[11] = substrate: CSCCC(O)C(=O)O; experiment: purified protein, by the assay type; type: biochemical, Lactobacillus confusus; conditions: other: dehydrogenation, pH 8.0, 3 mmoles NAD+, with the enantiomer mixture based on the total concentration
Protocol: as §1

[12] = substrate: NC(=O)c1ccc[n+]([C@@H]2O[C@H](COP(=O)([O-])OP(=O)(O)OC[C@H]3O[C@@H](n4cnc5c(N)ncnc54)[C@H](O)[C@@H]3O)[C@@H](O)[C@H]2O)c1; experiment: Dependency of the dehydrogenation reaction velocity on the NAD+ concentration; type: biochemical, Lactobacillus confusus; conditions: other: pH 8.0, 6.3 millimoles L-2-hydroxy-4-methylpentanoic acid, NAD+ 0.05 to 7.0 millimoles
Description: The dependency of the reaction velocity on the NAD^+ concentration was ascertained in a test mixture which contained 0.1 molar phosphate buffer for pH 8.0, 6.3 millimoles of L-2-hydroxy-4-methylpentanoic acid and limiting amounts of enzyme. The NAD^+ concentration was varied in the range of 0.05 to 7.0 millimoles.
The KM value for NAD^+ was ascertained by non-linear regression of the Michaelis-Menten equation and was 3.3×10^-4 moles.

[13] = substrate: NC(=O)C1=CN([C@@H]2O[C@H](COP(=O)(O)OP(=O)(O)OC[C@H]3O[C@@H](n4cnc5c(N)ncnc54)[C@H](O)[C@@H]3O)[C@@H](O)[C@H]2O)C=CC1; experiment: purified protein, by the assay type; conditions: other: pH 7.0, 0.79 millimole 2-keto-4-methylpentanoic acid, NADH 0.01 to 0.33 millimoles
[14] = test concentration 1 mM substrate
[15] = test concentration 10 mM substrate
[16] = test concentration 100 mM substrate
[17] = test concentration 0.1 mM substrate

Molecule	relative activity [1, 14]	relative activity [1, 15]	relative activity [1, 16]	relative activity [2, 17]	relative activity [2, 14]	relative activity [2, 15]	further results
CC(C)CC(O)C(=O)O (racemic) [DL-2-Hydroxy-4-methylpentanoic acid]	16.6 U/ml	39.8 U/ml	2.9 U/ml	–	–	–	–
CSCCC(=O)C(=O)O [2-Keto-4-(methylmercapto)-butyric acid]	–	–	–	33 U/ml	93 U/ml	53 U/ml	–
CC(C)C[C@H](O)C(=O)O [L-2-Hydroxy-4-methylpentanoic acid]	28.4 U/ml	49.7 U/ml	5.0 U/ml	–	–	–	–
CCCCC(=O)C(=O)O [2-Ketohexanoic acid]	–	–	–	123 U/ml	301 U/ml	103 U/ml	–
CSCCC(O)C(=O)O (racemic) [DL-2-Hydroxy-4-(methylmercapto)-butyric acid]	0.46 U/ml	2.7 U/ml	5.1 U/ml	–	–	–	–
CC(C)CC(=O)C(=O)O [2-Keto-4-methylpentanoic acid]	–	–	–	133 U/ml	259 U/ml	144 U/ml	–
CCCCC(O)C(=O)O (racemic) [DL-2-Hydroxyhexanoic acid]	8.4 U/ml	39.5 U/ml	3.9 U/ml	–	–	–	–
CCCC(O)C(=O)O (racemic) [DL-2-Hydroxypentanoic acid]	6.2 U/ml	31.2 U/ml	5.3 U/ml	–	–	–	–
CCCC(=O)C(=O)O [2-Ketopentanoic acid]	–	–	–	149 U/ml	344 U/ml	161 U/ml	–
L-2-hydroxy-4-methylpentanoic acid-dehydrogenase (Weissella confusa) (protein, the cells harvesting by centrifugation, solubilizing the product in a suspension buffered to pH 7 and obtaining the enzyme from the extract; made in house; host or cells: Lactobacillus confusus DSM 20196 (natural producer, not recombinant)) MARKIGIIGLGNVGAAVAHGLIAQGVADDYVFIDANEAKVKADQIDFQDAMANLEAHGNIVINDWAALADADVVISTLGNIKLQQDNPTGDRFAELKFTSSMVQSVGTNLKESGFHGVLVVISNPVDVITALFQHVTGFPAHKVIGTGTLLDTARMQRAVGEAFDLDPRSVSGYNLGEHGNSQFVAWSTVRVMGQPIVTLADAGDIDLAAIEEEARKGGFTVLNGKGYTSYGVATSAIRIAKAVMADAHAELVVSNRRDDMGMYLSYPAIIGRDGVLAETTLDLTTDEQEKLLQSRDYIQQRFDEIVDTL	–	–	–	–	–	–	Km [3]: 120 µM; Km [4]: 210 µM; Vmax [4]: 28 µmol/min/mg; Km [5]: 250 µM; Km [6]: 70 µM; Vmax [6]: 64 µmol/min/mg; Km [7]: 620 µM; Vmax [7]: 9.8 µmol/min/mg; Km [8]: 4500 µM; Km [9]: 1400 µM; Vmax [9]: 9.6 µmol/min/mg; Km [10]: 3550 µM; Km [11]: 11000 µM; Vmax [11]: 1.2 µmol/min/mg; Km [12]: 330 µM; Km [13]: 3.3e-05 mol
